In the supplement of paper PMC10307832 one finds relative viability data, which are given here for four cell lines.

Test in all cases: relative viability (nuclei count vs DMSO), 5 days (fraction); higher = more cells survive
Compound in the experiment “Afatinib + Trametinib”: CN(C)C/C=C/C(=O)Nc1cc2c(Nc3ccc(F)c(Cl)c3)ncnc2cc1O[C@H]1CCOC1 [Afatinib] + CC(=O)Nc1cccc(-n2c(=O)n(C3CC3)c(=O)c3c(Nc4ccc(I)cc4F)n(C)c(=O)c(C)c32)c1 [Trametinib] (partner 0.02 µM)
In outline:
(§1)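 Relative viability divides the nuclei count in treated wells by that in vehicle wells. Lung cancer cell lines were seeded in 1536-well plates, dosed by pin tool the next day, and fixed and stained after 5 days in one step with final 0.05% Triton X-100, 1% formaldehyde and 1 ug/ml Hoechst. Dosing was a single drug or a fixed anchor-drug dose plus five library-drug doses (not always all listed) in √10 steps, and values are medians of duplicate plates imaged at 4×.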

Compound in the experiment “Afatinib + Navitoclax”: CN(C)C/C=C/C(=O)Nc1cc2c(Nc3ccc(F)c(Cl)c3)ncnc2cc1O[C@H]1CCOC1 [Afatinib] + CC1(C)CCC(c2ccc(Cl)cc2)=C(CN2CCN(c3ccc(C(=O)NS(=O)(=O)c4ccc(N[C@H](CCN5CCOCC5)CSc5ccccc5)c(S(=O)(=O)C(F)(F)F)c4)cc3)CC2)C1 [Navitoclax] (partner 0.5 µM)
The procedure, abridged: as §1

Compound in the experiment “Afatinib + Phenformin”: CN(C)C/C=C/C(=O)Nc1cc2c(Nc3ccc(F)c(Cl)c3)ncnc2cc1O[C@H]1CCOC1 [Afatinib] + N=C(N)NC(=N)NCCc1ccccc1 [Phenformin] (partner 250 µM)
The procedure, abridged:
as §1

Compound in the experiment “Afatinib + Pemetrexed”: CN(C)C/C=C/C(=O)Nc1cc2c(Nc3ccc(F)c(Cl)c3)ncnc2cc1O[C@H]1CCOC1 [Afatinib] + Nc1nc2[nH]cc(CCc3ccc(C(=O)N[C@@H](CCC(=O)O)C(=O)O)cc3)c2c(=O)[nH]1 [Pemetrexed] (partner 0.2 µM)
In outline: as §1

On to SK-MES-1, for which the relative viability is 0.424 in the experiment with Afatinib + Trametinib (first compound 0.005 µM); 0.317 in the experiment with Afatinib + Trametinib (first compound 0.01581 µM); 0.349 with Afatinib + Trametinib (first compound 0.05 µM); 0.307 with Afatinib + Trametinib (first compound 0.1581 µM); 0.42 with Afatinib + Trametinib (first compound 0.5 µM); 1.16 in the experiment with Afatinib + Navitoclax (first compound 0.005 µM). The relative viability with Afatinib + Navitoclax (first compound 0.01581 µM) worked out at 0.965; with Afatinib + Navitoclax (first compound 0.05 µM), 0.655; with Afatinib + Navitoclax (first compound 0.1581 µM), 0.731; in the experiment with Afatinib + Navitoclax (first compound 0.5 µM), 0.556; in the experiment with Afatinib + Phenformin (first compound 0.005 µM) it was 0.547; in the experiment with Afatinib + Phenformin (first compound 0.01581 µM), 0.64. In addition, the relative viability in the experiment with Afatinib + Phenformin (first compound 0.05 µM) amounted to 0.389; with Afatinib + Phenformin (first compound 0.1581 µM), 0.332; with Afatinib + Phenformin (first compound 0.5 µM), 0.369; with Afatinib + Pemetrexed (first compound 0.005 µM), 0.386; in the experiment with Afatinib + Pemetrexed (first compound 0.01581 µM), 0.707; in the experiment with Afatinib + Pemetrexed (first compound 0.05 µM) it was 0.472. Also, the relative viability with Afatinib + Pemetrexed (first compound 0.1581 µM) worked out at 0.438; in the experiment with Afatinib + Pemetrexed (first compound 0.5 µM) it was 0.434.

Take A-427: the relative viability in the experiment with Afatinib + Trametinib (first compound 0.005 µM) turned out to be 0.702; with Afatinib + Trametinib (first compound 0.01581 µM) it was 0.686; with Afatinib + Trametinib (first compound 0.05 µM) it was 0.733; with Afatinib + Trametinib (first compound 0.1581 µM), 0.812; in the experiment with Afatinib + Trametinib (first compound 0.5 µM), 0.633; with Afatinib + Navitoclax (first compound 0.005 µM), 1.01. The relative viability with Afatinib + Navitoclax (first compound 0.01581 µM) is 0.997; with Afatinib + Navitoclax (first compound 0.05 µM), 1.05; with Afatinib + Navitoclax (first compound 0.1581 µM), 0.965; in the experiment with Afatinib + Navitoclax (first compound 0.5 µM) it was 0.992; with Afatinib + Phenformin (first compound 0.005 µM) it was 0.33; with Afatinib + Phenformin (first compound 0.01581 µM) it was 0.248. The relative viability in the experiment with Afatinib + Phenformin (first compound 0.05 µM) amounted to 0.371; in the experiment with Afatinib + Phenformin (first compound 0.1581 µM), 0.267; with Afatinib + Phenformin (first compound 0.5 µM), 0.32; with Afatinib + Pemetrexed (first compound 0.005 µM), 1.05; with Afatinib + Pemetrexed (first compound 0.01581 µM) it was 1.03; with Afatinib + Pemetrexed (first compound 0.05 µM), 1.05. Also, the values for the relative viability with Afatinib + Pemetrexed (first compound 0.1581 µM) and with Afatinib + Pemetrexed (first compound 0.5 µM) were 0.969 and 0.983, respectively.

As for NCI-H322M, the relative viability in the experiment with Afatinib + Trametinib (first compound 0.005 µM) stood at 0.492; in the experiment with Afatinib + Trametinib (first compound 0.01581 µM), 0.463; with Afatinib + Trametinib (first compound 0.05 µM), 0.458; in the experiment with Afatinib + Trametinib (first compound 0.1581 µM), 0.43; with Afatinib + Trametinib (first compound 0.5 µM), 0.442; in the experiment with Afatinib + Navitoclax (first compound 0.005 µM), 1.28. Moreover, the relative viability with Afatinib + Navitoclax (first compound 0.01581 µM) is 0.864; with Afatinib + Navitoclax (first compound 0.05 µM), 0.586; with Afatinib + Navitoclax (first compound 0.1581 µM) it was 0.405; in the experiment with Afatinib + Navitoclax (first compound 0.5 µM), 0.371; in the experiment with Afatinib + Phenformin (first compound 0.005 µM), 0.636; with Afatinib + Phenformin (first compound 0.01581 µM), 0.433. The relative viability with Afatinib + Phenformin (first compound 0.05 µM) amounted to 0.535; with Afatinib + Phenformin (first compound 0.1581 µM), 0.463; in the experiment with Afatinib + Phenformin (first compound 0.5 µM), 0.446; with Afatinib + Pemetrexed (first compound 0.005 µM) it was 0.563; with Afatinib + Pemetrexed (first compound 0.01581 µM), 0.534; with Afatinib + Pemetrexed (first compound 0.05 µM), 0.523. Moreover, the relative viability worked out at 0.531 with Afatinib + Pemetrexed (first compound 0.1581 µM) and 0.509 with Afatinib + Pemetrexed (first compound 0.5 µM).

In the case of HCC-366, the relative viability with Afatinib + Trametinib (first compound 0.005 µM) came out at 0.361; with Afatinib + Trametinib (first compound 0.01581 µM) it was 0.247; with Afatinib + Trametinib (first compound 0.05 µM), 0.353; with Afatinib + Trametinib (first compound 0.1581 µM), 0.293; in the experiment with Afatinib + Trametinib (first compound 0.5 µM), 0.29; with Afatinib + Navitoclax (first compound 0.005 µM) it was 1.14. The relative viability in the experiment with Afatinib + Navitoclax (first compound 0.01581 µM) came out at 1.04; with Afatinib + Navitoclax (first compound 0.05 µM), 1.18; in the experiment with Afatinib + Navitoclax (first compound 0.1581 µM), 1; with Afatinib + Navitoclax (first compound 0.5 µM), 1.06; with Afatinib + Phenformin (first compound 0.005 µM), 0.588; in the experiment with Afatinib + Phenformin (first compound 0.01581 µM), 0.61. Also, the relative viability with Afatinib + Phenformin (first compound 0.05 µM) stood at 0.611; in the experiment with Afatinib + Phenformin (first compound 0.1581 µM) it was 0.632; with Afatinib + Phenformin (first compound 0.5 µM), 0.595; with Afatinib + Pemetrexed (first compound 0.005 µM) it was 0.16; with Afatinib + Pemetrexed (first compound 0.01581 µM) it was 0.173; in the experiment with Afatinib + Pemetrexed (first compound 0.05 µM) it was 0.146. The relative viability in the experiment with Afatinib + Pemetrexed (first compound 0.1581 µM) was 0.196; with Afatinib + Pemetrexed (first compound 0.5 µM) it was 0.168.
